Key:
[1] = tested on: CDAA diet-induced liver cancer model rats; assay: CDAA (choline-deficient L-amino acid defined) diet-induced liver cancer model rats, combined intake of sorafenib and BCAA; assay type: in vivo, Fischer 344 rats
Excerpt: Using CDAA (choline-deficient L-amino acid defined) diet-induced liver cancer model rats, the effects of the combined intake of sorafenib and branched-chain amino acids (BCAA) were investigated. The CDAA diet used a commercially available choline-deficient diet (#518753: Choline deficient and iron supplemented L-amino acid defined rat diet, manufactured by Dyets Inc.).
Six-week old Fischer 344 rats were divided into a CDAA diet intake group, a sorafenib only intake group, and a BCAA combined intake group (N=15 for each group), and the test diet was provided freely. For the CDAA diet intake group, only the CDAA diet was supplied as the test diet. For the sorafenib only intake group, a CDAA diet mixed with an amount of sorafenib tosylate tablets (Nexavar (a registered trademark) tablets 200 mg, manufactured by Bayer Pharma AG) sufficient to provide an intake of sorafenib of 16 mg/kg/day (800 mg/50 kg/day) (hereafter referred to as the “CDAA/sorafenib diet”) was supplied. For the BCAA combined intake group, a diet prepared by mixing the CDAA/sorafenib diet supplied to the sorafenib only intake group with 2.5% by mass of a BCAA formulation (Livact (a registered trademark) granules, manufactured by Ajinomoto Co., Inc.) (hereafter referred to as the “CDAA/sorafenib/BCAA diet”) was supplied. The weight ratio between isoleucine, leucine and valine in the BCAA formulation was 1:2:1.2 (isoleucine:0.952 g, leucine: 1.904 g, and valine: 1.144 g).
Each individual was autopsied either at the time of death or after 56 weeks from the start of the test (from supply of the test diet), and the effect of treatment continuation was investigated on the basis of the hepatic fibrosis inhibitory effect, the hepatocarcinogenesis rate and the survival rate.
Further, the presence or absence of hepatic fibrosis was determined on the basis of the result of Azan staining of a liver tissue section, and the result of measuring the concentration of HYP (hydroxyproline) within the liver. The presence or absence of hepatocarcinogenesis was evaluated by immunostaining a tissue section of the liver with an antibody to the precancerous marker GST-P (glutathione S-transferase placental form), and inspecting the tissue section for the presence of staining.

Huh7 cells = assay: antitumor action enhancement effect, Huh7 cells implanted subcutaneously in nude mice; assay type: in vivo, BALB/c nude mice; conditions: sorafenib oral 5 mg/kg for 2 weeks then 30 mg/kg for 5 days, ± feed containing 3% BCAA; three weeks after start; FIG. 3
Method: Huh7 cells were implanted subcutaneously in BALB/c nude mice in an amount of 1×10^7 cell/mouse.
After one week, the mice were split into groups based on tumor diameter, and the groups were subjected to 2 weeks of 5 mg/kg sorafenib oral administration±food supply containing 3% BCAA (with the sorafenib administered 5 days/week).
In the third week of administration, the sorafenib dose was increased from 5 mg/kg to 30 mg/kg, and oral administration was continued for 5 days. During this time, supply of the feed containing 3% BCAA was continued.
Three weeks after the start of administration, the tumor diameter of each group was measured, and the average value+SE for the tumor volume was calculated. The tumor volume was calculated as tumor major axis/2×(minor axis)^2.

[2] = sorafenib 16 mg/kg/day in CDAA diet, with or without 2.5% BCAA formulation

CNC(=O)c1cc(Oc2ccc(NC(=O)Nc3ccc(Cl)c(C(F)(F)F)c3)cc2)ccn1 [sorafenib, 4-[4-[[4-chloro-3-(trifluoromethyl)phenyl]carbamoylamino]phenoxy]-N-methylpyridine-2-carboxamide]
number of rats in which hepatic fibrosis or precancerous lesions were observed, compared with the CDAA diet intake group ([1]; Azan staining, liver HYP, GST-P immunostaining, autopsy at death or after 56 weeks): fewer | bleeding (side effect) [1, 2]: a tendency for bleeding to occur in the gastrointestinal tract, including the anal region, was also observed | loss of appetite (side effect) [1, 2]: a loss of appetite due to gastrostenosis was also noted | redness (cutaneous side effect) [1, 2]: redness was noted not only on the four legs, but also on the trunk and the skin | degree of shrinkage in the tumor volume compared with the control group (Huh7 cells): unchanged

From US20140275183A1, “AGENT FOR REDUCING SIDE EFFECTS OF KINASE INHIBITOR” (Ajinomoto Co., Inc., priority 2011, published 2014)
